Target: T1, AVPR1A (Homo sapiens, UniProt P37288)
T1 construct: purchased Promega (in-house HiBiT-GPCR construct library, NanoBRET)
Experiment: NanoBRET screen HiBiT-AVPR1A in HEK293
Assay type: binding
Description: Each tracer candidate was screened across the entire library of HiBiT-GPCR constructs using NanoBRET as the detection modality. As depicted in Figure 4A, the specificity of interactions was evaluated through decrease in BRET due to competitive displacement of a bound tracer by excess parental compound. Each tracer was analyzed for binding to each HiBiT-GPCR fusion in the absence and in the presence of competing parental compound. Briefly, HEK293 cells were transfected with HiBiT-GPCR constructs diluted into promoterless DNA to reduce expression and maximize translocation to the cell surface. Each tracer candidate was then screened at concentrations of 1 μM and 0.1 μM across cells expressing these fusions. Cells were treated for 1.5 h with tracer either alone or in the presence of 20 μM competing parental compound (i.e., control). BRET was measured upon addition of purified LgBiT and subsequent complementation with HiBiT genetically fused to a GPCR. The specificity of interactions was assessed through a decrease in BRET signal due to competitive displacement of the bound tracer. To further gauge the robustness of these interactions, the fold response over the control (i.e., BRETtracer/BRETcontrol) was calculated. We chose a 1.5-fold response, which translates to ≥7-fold signal over noise as the minimal threshold required to score an interaction as positive.
HiBiT-GPCR DNA constructs were diluted in 10 mM Tris pH 8 to a final concentration of 0.01 μg/μL, arrayed in 96-well plates and stored at −20 °C. For transfection, HEK293 cells were suspended in Opti-MEM (without phenol red) supplemented with 2% fetal bovine serum (Seradigm) and 100 units/mL penicillin–streptomycin (Gibco) at a final concentration of 220,000 cells/mL and dispensed into white 96-well plates at 90 μL/well. Subsequent transfections and screens were carried using an Agilent Bravo Automated Liquid Handling Platform. First, the 96-well HiBiT DNA arrays were diluted 25-fold in Opti-MEM (without serum or phenol red) to a final concentration of 0.0004 μg/μL and 20 μL of the diluted DNAs were transferred into new 96-well plates. Next, promoterless carrier DNA (1 μg/μL) was diluted 25-fold (0.04 μg/μL) and then dispensed into the diluted arrays at 20 μL/well. Following brief mixing, Viafect transfection reagent (Promega) diluted 16-fold into Opti-MEM was dispensed into the plates at 40 μL/well. After mixing by pipetting, plates were incubated for 10 min on the pipetting station deck. The DNA-transfection reagent complexes were then added to plates containing cells. To facilitate the screen, 10 μL of DNA-transfection reagent complexes were added in duplicates to the top 4 and bottom 4 rows, resulting in two identical 48-well arrays per plate. Plates with transfected cells were incubated for 18–20 h at 37 °C/5% CO2. A screen of each tracer across the entire library using two different concentrations requires duplicate plates of transfected cells. Depending on the number of tracers being screened, transfections can be scaled up using the same ratios. The next day, for each tracer, four 20× screening solutions in tracer dilution buffer (Promega) were prepared: two duplicates at final concentration of 20 μM and two duplicates at a final concentration of 2 μM. […] The four resulting solutions were diluted 4-fold in Opti-MEM without serum or phenol red to generate 5× solutions (5 µM and 0.5 µM tracer +/− 100 μM competing compound). To screen the library, a BioTek MultiFlo FX liquid dispenser was used to dispense 22.5 µL of tracer solution to the top 4 rows and 22.5 µL tracer + competing compound solution to the 4 bottom rows. Plates were briefly mixed on an orbital shaker and incubated for 1.5 h at room temperature. […] Plates were briefly mixed on an orbital shaker and incubated for 15 min to allow complementation.

T1 sequence (P37288 whole entry): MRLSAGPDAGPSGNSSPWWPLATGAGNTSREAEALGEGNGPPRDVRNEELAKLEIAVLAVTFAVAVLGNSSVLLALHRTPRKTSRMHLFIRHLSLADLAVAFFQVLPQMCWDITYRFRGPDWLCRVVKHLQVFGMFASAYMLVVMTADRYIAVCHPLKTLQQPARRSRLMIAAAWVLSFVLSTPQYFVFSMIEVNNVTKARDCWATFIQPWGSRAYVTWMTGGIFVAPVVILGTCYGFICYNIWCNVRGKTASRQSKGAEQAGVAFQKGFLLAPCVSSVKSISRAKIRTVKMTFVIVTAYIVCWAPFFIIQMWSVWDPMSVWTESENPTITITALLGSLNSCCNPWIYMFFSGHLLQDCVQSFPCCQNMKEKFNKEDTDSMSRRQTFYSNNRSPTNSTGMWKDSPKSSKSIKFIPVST

| Compound | NanoBRET Fold Response (AVPR1A, tracer 0.1μM) | NanoBRET Fold Response (AVPR1A, tracer 1μM) | also measured |
| --- | --- | --- | --- |
| CN1CCN(C2=Nc3cc(Cl)ccc3Nc3ccc(CNC(=O)CCOCCOCCOCCOCCNC(=O)CCc4ccc5n4[B-](F)(F)[N+]4=C(c6ccc[nH]6)C=CC4=C5)cc32)CC1 [Clozapine-b-2-NB590] |  |  | NanoBRET Fold Response (AVPR1A, 0.1μM tracer): 1.04; NanoBRET Fold Response (AVPR1A, 1μM tracer): 0.98 |
| CN(C)CCC=C1c2ccccc2CCc2ccc(C(=O)NCCNC(=O)CCOCCOCCOCCOCCNC(=O)CCc3ccc4n3[B-](F)(F)[N+]3=C(c5ccc[nH]5)C=CC3=C4)cc21 [Amitriptyline-b-2-NB590] |  |  | NanoBRET Fold Response (tracer at 0.1μM, listed as amitriptyline-b-2-NB590): 1.10; NanoBRET Fold Response (tracer at 1μM, listed as amitriptyline-b-2-NB590): 0.77 |
| CCOC(=O)c1cc(C#N)c(N2CCC(C(=O)NS(=O)(=O)Cc3ccccc3/C=C/C(=O)NCCNC(=O)CCc3ccc4n3[B-](F)(F)[N+]3=C(c5ccc[nH]5)C=CC3=C4)CC2)nc1C [AZD1283-1-NB590] |  |  | NanoBRET Fold Response (AVPR1A, 0.1μM): 1.17; NanoBRET Fold Response (AVPR1A, 1μM): 1.06 |
| CC(C)N(CC[C@H](c1ccccc1)c1cc(CCNC(=O)CCOCCOCCOCCOCCNC(=O)CCc2ccc3n2[B-](F)(F)[N+]2=C(c4ccc[nH]4)C=CC2=C3)ccc1O)C(C)C [Tolterodine-2-NB590] | 0.91 | 1.03 |  |
| CC(C)N(CC[C@H](c1ccccc1)c1cc(CCNC(=O)c2ccc(CNC(=O)CCc3ccc4n3[B-](F)(F)[N+]3=C(c5ccc[nH]5)C=CC3=C4)cc2)ccc1O)C(C)C [Tolterodine-BZ-NB590] | 1.15 | 1.07 |  |
| O=C(CCOCCOCCOCCOCCNC(=O)CCc1ccc2n1[B-](F)(F)[N+]1=C(c3ccc[nH]3)C=CC1=C2)NCCCN1CCN(C2=Nc3ccccc3Oc3ccc(Cl)cc32)CC1 [Loxapine-a-2-NB590] | 1.16 | 0.90 |  |
| CN1CCN(C2=Nc3cc(Cl)ccc3N(CC(=O)NCCOCCOCCOCCOCCNC(=O)CCc3ccc4n3[B-](F)(F)[N+]3=C(c5ccc[nH]5)C=CC3=C4)c3ccccc32)CC1 [Clozapine-c-2-NB590] |  |  | NanoBRET Fold Response (AVPR1A, 0.1μM tracer): 0.99; NanoBRET Fold Response (AVPR1A, 1μM tracer): 0.96 |
| CN(C)CCC=C1c2ccccc2CCc2ccc(C(=O)NCCNC(=O)CCOCCOCCOCCOCCNC(=O)CCc3ccc4n3[B-](F)(F)[N+]3=C(c5ccc[nH]5)C=CC3=C4)cc21 [Amitriptyline-a-2-NB590] |  |  | NanoBRET Fold Response (tracer at 0.1μM): 0.93; NanoBRET Fold Response (tracer at 1μM): 1.11 |
| Cc1nc2n(c(=O)c1CCN1CCC(c3noc4cc(F)ccc34)CC1)CCCC2OC(=O)NCCOCCOCCOCCOCCNC(=O)CCc1ccc2n1[B-](F)(F)[N+]1=C(c3ccc[nH]3)C=CC1=C2 (centres unmarked) [Risperidone-2-NB590] | 0.90 | 0.87 |  |
| COc1ccc2[nH]c(-c3ccc(CNC(=O)CCOCCOCCOCCOCCNC(=O)CCc4ccc5n4[B-](F)(F)[N+]4=C(c6ccc[nH]6)C=CC4=C5)cc3)c(CCNC(C)=O)c2n1 [AzomelatoninICO9-2-NB590] |  |  | NanoBRET Fold Response (0.1μM tracer): 0.80; NanoBRET Fold Response (1μM tracer): 0.75 |
| COc1ccccc1N1CCN(CCCCN2C(=O)c3ccc(CNC(=O)CCOCCOCCOCCOCCNC(=O)CCc4ccc5n4[B-](F)(F)[N+]4=C(c6ccc[nH]6)C=CC4=C5)cc3C2=O)CC1 [NAN-190-2-NB590] | 0.97 | 0.96 |  |
| O=C(CCc1ccc2n1[B-](F)(F)[N+]1=C(c3ccc[nH]3)C=CC1=C2)NCCOCCOCCNC(=O)OCCOCCN1CCN(C2=Nc3ccccc3Sc3ccccc32)CC1 [Quetiapine-a-2-NB590] | 1.02 | 1.00 |  |
| O=C(CCOCCOCCOCCOCCNC(=O)CCc1ccc2n1[B-](F)(F)[N+]1=C(c3ccc[nH]3)C=CC1=C2)NCCCN1CCN(C2=Nc3cc(Cl)ccc3Nc3ccccc32)CC1 [Clozapine-a-2-NB590] |  |  | NanoBRET Fold Response (AVPR1A, 0.1μM tracer): 0.89; NanoBRET Fold Response (AVPR1A, 1μM tracer): 0.99 |
| N#CN=C(NCCCOc1cccc(CN2CCCCC2)c1)NCCNC(=O)CCOCCOCCOCCOCCNC(=O)CCc1ccc2n1[B-](F)(F)[N+]1=C(c3ccc[nH]3)C=CC1=C2 [Aminopotentidine-2-NB590] | 0.93 | 0.97 |  |
| O=C(CCc1ccc2n1[B-](F)(F)[N+]1=C(c3ccc[nH]3)C=CC1=C2)NCc1ccc(C(=O)NCCOCCOCCNCC(O)COc2cccc3ccccc23)cc1 (centres unmarked) [Propranolol-3-NB590] |  |  | NanoBRET Fold Response (AVPR1A, 0.1μM): 1.06; NanoBRET Fold Response (AVPR1A, 1μM): 0.97 |
| O=C(CCc1ccc2n1[B-](F)(F)[N+]1=C(c3ccc[nH]3)C=CC1=C2)NCc1ccc(C(=O)NCCOCCC(=O)N[C@@H]2CC[C@@]3(O)[C@H]4Cc5ccc(O)c6c5[C@@]3(CCN4CC3CC3)[C@H]2O6)cc1 [Naltrexone-3-NB590] | 1.34 | 0.76 |  |
| COc1ccccc1N1CCN(CCCCN2C(=O)c3ccc(CNC(=O)CCOCCNC(=O)c4ccc(CNC(=O)CCc5ccc6n5[B-](F)(F)[N+]5=C(c7ccc[nH]7)C=CC5=C6)cc4)cc3C2=O)CC1 [NAN-190-3-NB590] | 0.90 | 0.75 |  |
| Cc1cc2c(s1)Nc1ccccc1N=C2N1CCN(CCCNC(=O)CCOCCOCCOCCOCCNC(=O)CCc2ccc3n2[B-](F)(F)[N+]2=C(c4ccc[nH]4)C=CC2=C3)CC1 [Olanzapine-a-2-NB590] | 1.11 | 1.16 |  |
| CCCn1c(=O)c2[nH]c(-c3ccc(OCC(=O)NCCNC(=O)CCOCCNC(=O)c4ccc(CNC(=O)CCc5ccc6n5[B-](F)(F)[N+]5=C(c7ccc[nH]7)C=CC5=C6)cc4)cc3)nc2n(CCC)c1=O [XAC-3-NB590] | 1.25 | 1.36 |  |
| CN(CCC=C1c2ccccc2CCc2ccccc21)C(=O)CCOCCOCCOCCOCCNC(=O)CCc1ccc2n1[B-](F)(F)[N+]1=C(c3ccc[nH]3)C=CC1=C2 [Amitriptyline-e-2-NB590] |  |  | NanoBRET Fold Response (tracer at 1μM): 0.98 |
| COc1ccc2c(n1)c(CCNC(C)=O)cn2CCNC(=O)CCc1ccc2n1[B-](F)(F)[N+]1=C(c3ccc[nH]3)C=CC1=C2 [Azamelatonin-1-NB590] |  |  | NanoBRET Fold Response (0.1μM tracer): 2.27; NanoBRET Fold Response (1μM tracer): 0.90 |

From publication PMC8151276, “An Integrated Approach toward NanoBRET Tracers for Analysis of GPCR Ligand Engagement” (Molecules, 2021)
